Literature values, collected in patent US20260324642A1, “COMPOSITION, PEST CONTROL PREPARATION, AND PEST CONTROL METHOD” (priority 2023, published 2026).

Conditions: known activity, background art

Compound | insecticidal activity
C/C=C(/C)C(=O)O[C@H]1CC[C@@]2(C)[C@@H]3CC[C@H]4[C@]5(O)C[C@H](O)[C@@]6(O)[C@@H](CN7C[C@@H](C)CC[C@H]7[C@@]6(C)O)[C@]5(O)C[C@@]42O[C@]13O [Cevadine] | known to have insecticidal activity
COc1ccc(C(=O)O[C@H]2CC[C@@]3(C)[C@@H]4CC[C@H]5[C@]6(O)C[C@H](O)[C@@]7(O)[C@@H](CN8C[C@@H](C)CC[C@H]8[C@@]7(C)O)[C@]6(O)C[C@@]53O[C@]24O)cc1OC [Veratridine] | known to have insecticidal activity
